Common to all, as to assay: NCI anticancer screen, dose series, 48 h
Test [1] deals with A549 NSCLC.
Test [2] relates to ACHN renal.
Test [3] relates to HOP-62 NSCLC.
The test system of test [4] is KM12 colon.
The subject of test [5] is LOX IMVI melanoma.
Test [6] deals with NCI-H23 lung.
Test [7] deals with RPMI-8226 leukemia.
Test [8] deals with SF-295 CNS.
Test [9] deals with SK-MEL-2 melanoma.
The subject of test [10] is UACC-257 melanoma.

Results on 17 compounds are retold here after PubChem BioAssay (NCI).

Where “and” joins values, the source holds several entries; their conditions need not be identical. Equal values may be shown once.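 1) Cells in 96-well plates. 2) Compound, 48 h, 5 concentrations. 3) Linear interpolation between surrounding doses. 4) Unreached endpoint = highest concentration. At the GI50, growth is halved. Definition used: TGI = concentration required for complete inhibition of growth.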

With `CC(=O)OCC1OC(S[As](C)C)C(OC(C)=O)C1OC(C)=O` (centres undefined), the GI50 in test [1] was 1.94 µM; in test [2], 0.215 µM; in test [3], 3.35 µM; in test [4] it was 2 µM; in [5], 0.257 µM; in [6] it was 0.551 µM. In addition, the figures for the GI50 in test [8], in test [9] and in [10] were 2.06 µM, 1.2 µM and 1.57 µM, respectively. Besides, the TGI in test [1] came out at 13.6 µM; in test [2] it was 0.831 µM; in test [3], 15.2 µM; in [4] it was 13.6 µM; in test [5], 0.991 µM; in test [6], 3.63 µM. Further, the TGI came to 0.126 µM in test [7], 7.33 µM in test [8], 7.82 µM in test [9] and 7.06 µM in test [10].
Regarding `O=C(O)c1cccc(CC(Br)C(=O)O)c1` (centres undefined), the TGI in test [1], in test [2], in test [3], in test [4], in test [5] and in [6] was > 100 µM in each case. Moreover, the TGI in test [7], in test [8], in test [9] and in [10] was > 100 µM each time.
`CC(C)(O)[C@H]1[C@@H]2OC(=O)[C@H]1[C@]1(O)C[C@H]3OC34C(=O)O[C@H]2[C@@]41C` (some centres undefined) (tested in a mixture with another compound): the TGI in test [1], in test [2], in [3], in test [4], in [5] and in [6] was > 100 µM throughout. Moreover, the TGI in test [7], in test [8], in test [9] and in test [10] was > 100 µM throughout.
With `COC(=O)C#Cc1ccc([N+](=O)[O-])cc1`, the TGI in test [1] stood at 7.44 µM; in test [2], 2.9 µM; in [3] it was 6.87 µM; in test [4] it was 3.9 µM; in test [5], 2.64 µM; in test [6], 3.68 µM. Moreover, the TGI in test [7] was 1.48 µM; in test [8] it was 10.9 µM; in test [9], 7.98 µM; in test [10] it was 7.12 µM.
On to `Cc1cccc(N=C2c3cc([N+](=O)[O-])ccc3-c3c2cc([N+](=O)[O-])cc3[N+](=O)[O-])c1`, for which the GI50 in [1] is 12.3 µM; in test [2], 3.36 µM; in test [3] it was 4.28 µM; in test [4], 5.06 µM; in test [5], 1.57 µM; in test [6], 5.33 µM. Also, the GI50 in test [7] was 2.73 µM; in test [8], 25.2 µM; in test [9] it was 7.39 µM; in test [10] it was 6.81 µM. Besides, the TGI was found to be 32.9 µM in [1]; 11.5 µM in test [2]; 19.9 µM in test [3]; 20 µM in test [4]; 2.93 µM in test [5]; 27.6 µM in test [6]. Moreover, the TGI is 10.7 µM in [7], > 100 µM in test [8], 32.1 µM in test [9] and 34.5 µM in test [10].
As for `O=C(O)CCC1CCC(c2cc(F)ccc2F)(S(=O)(=O)c2ccc(Cl)cc2)CC1` (centres undefined), the GI50 is 44.4 µM and > 100 µM in test [1]; 56.7 µM and > 100 µM in test [2]; 30.5 µM and > 100 µM in [3]; 34.3 µM and 85.5 µM in test [4]; 40.3 µM and > 66.5 µM in [5]; 23.4 µM and > 100 µM in test [6]. Also, the GI50 is 71.4 µM and > 100 µM in test [7]; > 56.9 µM in [8]; 20.1 µM and > 100 µM in [9]; 44 µM and > 100 µM in test [10]. For the same compound, the TGI in [1], in test [2], in test [3], in [4], in test [5] and in test [6] was > 100 µM throughout. Besides, the TGI was > 100 µM in test [7]; > 100 µM in [8]; 69.7 µM and > 100 µM in [9]; > 100 µM in [10].
As for `O=C1/C(=C/C(Cl)=C/c2ccccc2)SC(=S)N1CCc1ccc(O)cc1`, the GI50 in [1] is 2.85 µM; in test [2], 1.67 µM; in [3], 3.15 µM; in [4], 1.49 µM; in test [5] it was 1.27 µM; in test [6] it was 2.42 µM. For the same compound, the GI50 in [7] was 0.674 µM; in test [8], 3.57 µM; in test [9], 2.56 µM; in test [10], 1.39 µM. Moreover, the TGI in test [1] was > 100 µM; in test [2], 3.6 µM; in [3], 12.2 µM; in [4] it was 3.03 µM; in [5] it was 2.74 µM; in [6], 7.85 µM. Moreover, the TGI in [7] was 12.7 µM; in test [8], 15.9 µM; in [9], 7.42 µM; in [10] it was 3.61 µM.
`COc1ccc(F)cc1C(=O)c1cnc(NC2CCN(S(C)(=O)=O)CC2)nc1N`: the GI50 was 3.14 µM in test [1]; 1.55 µM in test [2]; 5.42 µM in test [3]; 2.4 µM in [4]; 2.09 µM in test [5]; 2.97 µM in test [6]. The GI50 is 3.27 µM in test [7], 1.68 µM in test [8], 3.48 µM in [9] and 4.24 µM in test [10]. Also, the TGI in [1] was > 23.7 µM; in test [2], > 21.4 µM; in test [3] it was > 20.6 µM; in test [4], > 25 µM; in [5], > 25 µM; in test [6], 16.7 µM. For the same compound, the TGI is 13.1 µM in test [7], > 15.5 µM in [8], 9.76 µM in test [9] and 15.5 µM in [10].
For the compound `O=C(Cn1ccnc1[N+](=O)[O-])NCC(F)(F)C(F)(F)F`, the GI50 in test [1], in test [2], in test [3], in test [4], in test [5] and in test [6] was > 100 µM each time. Moreover, the GI50 in test [7], in test [8], in [9] and in [10] was > 100 µM throughout. Also, the TGI in test [1], in test [2], in test [3], in [4], in test [5] and in [6] was > 100 µM throughout. The TGI in [7], in test [8], in test [9] and in test [10] was > 100 µM in each case.
With `Cc1c(Cl)ccc2c1NC(=O)C2(O)C1Cc2ccccc2C1=O` (centres undefined), the TGI in test [1], in test [2], in test [3], in test [4], in [5] and in test [6] was > 100 µM throughout. Also, the TGI in test [7], in test [8], in test [9] and in test [10] was > 100 µM each time.
Regarding `O=C(Nc1ccc(Br)c(Cl)c1)c1cc(F)ccc1O`, the GI50 is 1.75 µM in [1]; 0.61 µM in test [2]; 0.893 µM in test [3]; 1.36 µM in [4]; 0.553 µM in test [5]; 0.36 µM in test [6]. Also, the GI50 is 0.231 µM in [7], 0.933 µM in [8], 0.558 µM in test [9] and 0.526 µM in test [10]. Moreover, the TGI in [1] was > 50 µM; in test [2], > 14.4 µM; in test [3], > 13.2 µM; in test [4], 5.23 µM; in test [5], 3.04 µM; in [6], 3.17 µM. Moreover, the TGI in test [7] was 1.02 µM; in [8], 1.89 µM; in test [9] it was 2.08 µM; in test [10], 2.79 µM.
`COC(=O)C(=O)C(C(=O)C(=O)Nc1cc([N+](=O)[O-])ccc1[N+](=O)[O-])c1nc2ccc(C(=O)c3ccccc3)cc2[nH]c1=O` (centres undefined): the TGI in test [1] is > 100 µM; in test [2], > 100 µM; in test [3], > 100 µM; in test [4], > 100 µM; in test [5], > 100 µM; in [6], 70.4 µM. The TGI was 62.4 µM in test [7], > 100 µM in test [8], > 100 µM in [9] and > 100 µM in [10].
Consider `COc1ccc(Nc2ccnc(NCCCNc3ccnc4cc(Cl)ccc34)n2)cc1`, for which the GI50 was 1.55 µM in test [1]; 1.18 µM in [2]; 1.61 µM in [3]; 1.67 µM in [4]; 0.322 µM in test [5]; 2.43 µM in test [6]. For the same compound, the GI50 in test [7] was 0.891 µM; in [8], 1.12 µM; in test [9], 1.61 µM; in test [10], 1.33 µM. Besides, the TGI in [1] was 3.66 µM; in test [2], 2.42 µM; in [3], 4.44 µM; in test [4] it was 3.73 µM; in test [5], 1.27 µM; in [6], 8.5 µM. For the same compound, the TGI was 3.23 µM in [7], 2.36 µM in [8], 3.21 µM in test [9] and 2.75 µM in [10].
As for `C=C[C@]1(C)C=C2C(=O)[C@@]3(O)OC(=O)[C@@]4(CCCC(C)(C)[C@H]34)[C@@]2(O)CC1`, the GI50 was 2.38 µM in [1]; 1.12 µM in test [2]; 4.17 µM in test [3]; 3.42 µM in [4]; 1.72 µM in [5]; 2.14 µM in [6]. Moreover, the GI50 is 1.13 µM in [7], 4.43 µM in [8], 2.27 µM in [9] and 1.33 µM in test [10]. Further, the TGI in [1] was 7.26 µM; in [2] it was 2.35 µM; in test [3], 15.7 µM; in test [4] it was 13.8 µM; in test [5] it was 3.24 µM; in test [6], 5.29 µM. Moreover, the TGI in test [7] stood at 8.17 µM; in test [8], 17.8 µM; in test [9], 5.02 µM; in test [10], 2.91 µM.
For `CCC[CH2][Sn]([CH2]CCC)([S]C1=NCCS1)[S]C1=NCCS1`, the GI50 is 1.85 µM in test [1]; 0.368 µM in [2]; 2.1 µM in test [3]; 1.02 µM in test [4]; 0.186 µM in test [5]; 0.17 µM in test [6]. Besides, the GI50 was 0.101 µM in [7], 0.73 µM in test [8], 0.194 µM in test [9] and 0.323 µM in test [10]. For the same compound, the TGI stood at 3.55 µM in test [1]; 1.31 µM in [2]; 3.55 µM in test [3]; 2.28 µM in test [4]; 0.555 µM in [5]; 0.67 µM in [6]. The TGI was found to be 0.461 µM in test [7], 2.02 µM in test [8], 0.566 µM in test [9] and 1.44 µM in test [10].
For `COc1cc(C(=O)n2nc(N3CCN(C)CC3)c3cc(N)ccc32)cc(OC)c1OC`, the GI50 in [1] is 6.89 µM; in test [2] it was 4.2 µM; in test [3] it was 5.56 µM; in test [4], 3.51 µM; in test [5], 4.23 µM; in test [6], 4.15 µM. Moreover, the GI50 was 4.79 µM in test [7], 3.54 µM in test [8], 10.4 µM in test [9] and 28.5 µM in [10]. In addition, the TGI is > 100 µM in test [1]; > 100 µM in test [2]; > 100 µM in test [3]; 27.2 µM in test [4]; 17.1 µM in [5]; > 100 µM in test [6]. The TGI in test [7] is 34.8 µM; in test [8], 18.2 µM; in test [9], 67.5 µM; in test [10], > 100 µM.
Regarding `ON(CCc1ccccn1)Cc1ccccc1`, the TGI in test [1], in test [2], in [3], in [4], in [5] and in [6] was > 100 µM each time. Moreover, the TGI in test [7], in test [8], in [9] and in test [10] was > 100 µM in each case.
